In PubChem BioAssay (NCI):
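Tested at 5 concentrations; 48 h exposure; 96-well plates; endpoints linearly interpolated, else capped at highest concentration. GI50 is the concentration that inhibits growth by half. Definition used: TGI = concentration required for complete inhibition of growth.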

Legend:
Test in all cases: DTP human tumour cell line panel, 48 h
[1] = tested on: SR leukemia
[2] = tested on: NCI-H226 lung
[3] = tested on: SN12C renal
[4] = tested on: RXF 393 renal
[5] = tested on: DU-145 prostate
[6] = tested on: HOP-92 NSCLC
[7] = tested on: SNB-19 CNS
[8] = tested on: SF-295 CNS
[9] = tested on: OVCAR-3 ovarian
[10] = tested on: 786-0 renal
[11] = tested on: TK-10 renal
[12] = tested on: UACC-62 melanoma
[13] = tested on: IGROV1 ovarian
[14] = tested on: SK-MEL-2 melanoma
[15] = tested on: RPMI-8226 leukemia
[16] = tested on: COLO 205 colon
[17] = tested on: EKVX NSCLC
[18] = tested on: OVCAR-4 ovarian
[19] = tested on: CAKI-1 renal
[20] = tested on: UACC-257 melanoma
[21] = tested on: HT29 colon
[22] = tested on: HOP-62 NSCLC
[23] = tested on: BT-549 breast
[24] = tested on: A498 renal
[25] = tested on: SNB-75 CNS
[26] = tested on: NCI/ADR-RES ovarian
[27] = tested on: MOLT-4 leukemia
[28] = tested on: SF-539 CNS
[29] = tested on: CCRF-CEM leukemia
[30] = tested on: M14 melanoma
[31] = tested on: HCT-116 colon
[32] = tested on: MDA-MB-435
[33] = tested on: HCT-15 colon
[34] = tested on: OVCAR-8 ovarian
[35] = tested on: HCC-2998 colon
[36] = tested on: MDA-MB-231 breast
[37] = tested on: A549 NSCLC
[38] = tested on: SF-268 CNS
[39] = tested on: NCI-H460 lung
[40] = tested on: OVCAR-5 ovarian
[41] = tested on: T-47D breast
[42] = tested on: HS 578T breast
[43] = tested on: SW-620 colon
[44] = tested on: UO-31 renal
[45] = tested on: NCI-H522 lung
[46] = tested on: LOX IMVI melanoma
[47] = tested on: U251 CNS
[48] = tested on: KM12 colon
[49] = tested on: SK-MEL-28 melanoma
[50] = tested on: MALME-3M melanoma
[51] = tested on: HL-60(TB) leukemia
[52] = tested on: MCF7 breast
[53] = tested on: SK-OV-3 ovarian
[54] = tested on: NCI-H23 lung
[55] = tested on: PC-3 prostate
[56] = tested on: K-562 leukemia
[57] = tested on: SK-MEL-5 melanoma
[58] = tested on: ACHN renal

What does the source list for `Oc1ccc(N=Nc2ccc(N=Nc3ccccc3)cc2)cc1`?
GI50 [1]: 1.79 µM; TGI [1]: 14 µM; GI50 [2]: 18.3 µM; TGI [2]: 48.2 µM; GI50 [3]: 3.95 µM; TGI [3]: 17.2 µM; GI50 [4]: 14.3 µM; TGI [4]: 61.4 µM; GI50 [5]: 2.09 µM; TGI [5]: 12.2 µM; GI50 [6]: 6.97 µM; TGI [6]: 28.1 µM; GI50 [7]: 6.39 µM; TGI [7]: 19.7 µM; GI50 [8]: 2.32 µM; TGI [8]: 10.1 µM; GI50 [9]: 1.71 µM; TGI [9]: 4.77 µM; GI50 [10]: 1.32 µM; TGI [10]: 6.05 µM; GI50 [11]: 1.98 µM; TGI [11]: 5.55 µM; GI50 [12]: 0.874 µM; TGI [12]: 2.41 µM; GI50 [13]: 3.5 µM; TGI [13]: 18.2 µM; GI50 [14]: 2.29 µM; TGI [14]: 8.06 µM; GI50 [15]: 2.15 µM; TGI [15]: 16 µM; GI50 [16]: 8.01 µM; TGI [16]: 24.4 µM; GI50 [17]: 2.49 µM; TGI [17]: 12.5 µM; GI50 [18]: 8.43 µM; TGI [18]: 32.9 µM; GI50 [19]: 1.45 µM; TGI [19]: 4.12 µM; GI50 [20]: 4.23 µM; TGI [20]: 17 µM; GI50 [21]: 2.86 µM; TGI [21]: 9.68 µM; GI50 [22]: 2.7 µM; TGI [22]: 9.05 µM; GI50 [23]: 0.899 µM; TGI [23]: 9.06 µM; GI50 [24]: 9.23 µM; TGI [24]: 21.7 µM; GI50 [25]: 9.84 µM; TGI [25]: 47.8 µM; GI50 [26]: 3.67 µM; TGI [26]: 39.5 µM; GI50 [27]: 0.351 µM; TGI [27]: 11.9 µM; GI50 [28]: 0.712 µM; TGI [28]: 3.03 µM; GI50 [29]: 0.379 µM; TGI [29]: 14 µM; GI50 [30]: 3.01 µM; TGI [30]: 10.1 µM; GI50 [31]: 1.99 µM; TGI [31]: 10.1 µM; GI50 [32]: 2.96 µM; TGI [32]: 14.7 µM; GI50 [33]: 0.855 µM; TGI [33]: 12.9 µM; GI50 [34]: 3.2 µM; TGI [34]: 24.2 µM; GI50 [35]: 2.52 µM; TGI [35]: 11.1 µM; GI50 [36]: 2.5 µM; TGI [36]: 7.09 µM; GI50 [37]: 2.14 µM; TGI [37]: 12 µM; GI50 [38]: 1.63 µM; TGI [38]: 11.8 µM; GI50 [39]: 1.97 µM; TGI [39]: 6.16 µM; GI50 [40]: 4.16 µM; TGI [40]: 17.3 µM; GI50 [41]: 1.61 µM; TGI [41]: 6.73 µM; GI50 [42]: 12.4 µM; TGI [42]: 51 µM; GI50 [43]: 1.51 µM; TGI [43]: 13.9 µM; GI50 [44]: 0.61 µM; TGI [44]: 3.73 µM; GI50 [45]: 0.832 µM; TGI [45]: 3.94 µM; GI50 [46]: 0.285 µM; TGI [46]: 1.76 µM; GI50 [47]: 10.4 µM; TGI [47]: 26.9 µM; GI50 [48]: 2.98 µM; TGI [48]: 16.6 µM; GI50 [49]: 1.7 µM; TGI [49]: 3.64 µM; GI50 [50]: 11.6 µM; TGI [50]: 25.7 µM; GI50 [51]: 0.366 µM; TGI [51]: 16.1 µM; GI50 [52]: 1.5 µM; TGI [52]: 6.86 µM; GI50 [53]: 3.29 µM; TGI [53]: 7.87 µM; GI50 [54]: 4.1 µM; TGI [54]: 19.5 µM; GI50 [55]: 2.83 µM; TGI [55]: 16.8 µM; GI50 [56]: 0.615 µM; TGI [56]: 12.7 µM; GI50 [57]: 2.1 µM; TGI [57]: 5.64 µM; GI50 [58]: 1.49 µM; TGI [58]: 5.59 µM
